From patent US7989422B2, “Antibacterial agents” (Alchemia Limited, priority 2005, dated 2011)

What was measured:
Assay type in all cases: cell-based
[1] = test system: Staphylococcus aureus ATCC 25923; assay: MIC against S. aureus, microbroth dilution in MH broth, without or with 5% horse serum; conditions: MIC class; S. aureus ATCC 25923
Description: (§1) Testing was conducted to determine the in vitro antimicrobial activity of a series of compounds synthesised by Alchemia Pty Ltd. The antimicrobial activity of each compound was determined at a single concentration (128 μg/mL) in Mueller Hinton (MH) broth against the ATCC type strain of Staphylococcus aureus. […] Compounds showing activity at concentrations up to 32-64 μg/mL in the presence/absence of serum were then tested for MIC activity against a standard set of 5 microorganisms comprising of ATCC type strains of MRSA, Enterococcus faecalis, Enterococcus faecium, VRE and Escherichia coli. CLSI (formerly NCCLS) microbroth dilution technique was used.
(§2) Each compound is initially dissolved in 100 μL of DMSO. Each solution is then diluted further in 0.9 mL of sterile MH broth to give a total volume of 1 mL (1000 μg/mL) This stock solution is then further diluted in MH broth to give a test solution with final concentration of 128 μg/mL using the following formula: 0.5 ml stock in 3.4 ml MH broth
(§3) Each test organism was subcultured from the −70° C. deep freezer onto horse blood agar. The plates were streaked to obtain isolated colonies and incubated at 35° C. in non-CO2 incubator for 24 hours. A second subculture was carried out onto horse blood agar. For each test organism, 1-2 colonies were selected from an 18-24 hour culture and inoculated into 2 ml sterile MH broth. The turbidity was adjusted to 0.5 McFarland standard.
(§4) A 1:10 dilution in MH broth (200 μL in 2 ml MH) of the 0.5 McFarland control was prepared. 5 μL of this diluted solution was used to inoculate the trays.
100 μL of sterile MH broth was added in columns 2-12. 200 μL of test solution was added in column 1. 100 μL was transferred in column 2 giving a ½ dilution. 100 μL from column 2 was then transferred to column 3 (¼ dilution). This dilution was carried on until column 12. A second tray containing the same test solution was inoculated in a similar manner using sterile MH broth with 5% heat inactivated horse serum. 5 μL of organism solution was then added to each well. The plates were then sealed and incubated at 35° C. in a non-CO2 incubator for 18-24 hours. The plates were examined for growth after the incubation time.
(§5) If the test organism is sensitive to the compound in the broth the growth will be inhibited. Similarly, if the organism grows on the antibiotic containing medium then it is resistant to this particular antibiotic.

[2] = test system: Enterococcus faecium ATCC 35667; assay: MIC against E. faecium, microbroth dilution; conditions: MIC class
Description: as §1, §2, §3, §4
(§6) The trays were prepared in a similar way as mentioned above and incubated at 35° C. in a non-CO2 incubator for 18-24 hours. The plates were examined for growth after the incubation time.
(§7) After 18-24 hour incubation 5 μL from each well was then inoculated onto horse blood agar and incubated for 18-24 hours at 35° C. in a non-CO2 incubator.
as §5

[3] = test system: Enterococcus faecalis ATCC 29212; assay: MIC against E. faecalis, microbroth dilution; conditions: MIC class
Description: as §1, §2, §3, §4, §6, §7, §5

[4] = test system: Staphylococcus aureus (MRSA) ATCC 33591; assay: MIC against MRSA, microbroth dilution; conditions: MIC class
Description: as §1, §2, §3, §4, §6, §7, §5

E. Faecium 51299 VanB = assay: MIC against vancomycin-resistant enterococcus 51299 (VanB), microbroth dilution; conditions: MIC class; ATCC 51299 VanB
Description: as §1, §2, §3, §4, §6, §7, §5

| SMILES | S. Aureus 25923 activity [1] | E. Faecium 35667 activity [2] | E. Fecalis 29212 activity [3] | S. Aureus 33591 MRSA activity [4] | E. Faecium 51299 VanB activity (E. Faecium 51299 VanB) |
| --- | --- | --- | --- | --- | --- |
| CCCCCCCCCCCCC(N)C(=O)NC1C(CO)OCC(Nc2c(Cl)cc(C(F)(F)F)cc2[N+](=O)[O-])C1O (stereo not shown) [Compound 198] | + (“+”: MIC (μg/mL): 64 ≧ MIC > 16) | + (“+”: MIC (μg/mL): 64 ≧ MIC > 16) | + (“+”: MIC (μg/mL): 64 ≧ MIC > 16) | + (“+”: MIC (μg/mL): 64 ≧ MIC > 16) | + (“+”: MIC (μg/mL): 64 ≧ MIC > 16) |
| CCCCCCCCCCCCC(N)C(=O)NC1C(CO)OCC(n2c(S)nc3cc(C(F)(F)F)cc(Cl)c32)C1O (stereo not shown) [Compound 186] | ++ (“++”: MIC (μg/mL): MIC ≦ 16) | − (“−”: MIC (μg/mL): MIC > 64) | + (“+”: MIC (μg/mL): 64 ≧ MIC > 16) | + (“+”: MIC (μg/mL): 64 ≧ MIC > 16) | − (“−”: MIC (μg/mL): MIC > 64) |
| Nc1cc(C(F)(F)F)cc(Cl)c1NC1COC(CO)C(NC(=O)c2ccc(-c3ccccc3)cc2)C1O (stereo not shown) [Compound 200] | − (“−”: MIC (μg/mL): MIC > 64) | − (“−”: MIC (μg/mL): MIC > 64) | − (“−”: MIC (μg/mL): MIC > 64) | + (“+”: MIC (μg/mL): 64 ≧ MIC > 16) | − (“−”: MIC (μg/mL): MIC > 64) |
| Nc1ccccc1OC1C(NC(=O)Nc2ccc(Cl)c(C(F)(F)F)c2)COC(CO)C1NC(=O)C(N)Cc1ccc(-c2ccccc2)cc1 (single isomer, unassigned) [Compound 71] | ++ (“++”: MIC (μg/mL): MIC ≦ 16) | ++ (“++”: MIC (μg/mL): MIC ≦ 16) | + (“+”: MIC (μg/mL): 64 ≧ MIC > 16) | ++ (“++”: MIC (μg/mL): MIC ≦ 16) | + (“+”: MIC (μg/mL): 64 ≧ MIC > 16) |
| CCCCCC(C)CCC(=O)NC1C(CO)OCC(n2c(S)nc3cc(C(F)(F)F)cc(Cl)c32)C1O (stereo not shown) [Compound 178] | + (“+”: MIC (μg/mL): 64 ≧ MIC > 16) | − (“−”: MIC (μg/mL): MIC > 64) | − (“−”: MIC (μg/mL): MIC > 64) | − (“−”: MIC (μg/mL): MIC > 64) | − (“−”: MIC (μg/mL): MIC > 64) |
| CCCCCCCCCCCCC(N)C(=O)NC1C(CO)OCC(n2c(N)nc3cc(C(F)(F)F)ccc32)C1O (stereo not shown) [Compound 183] | + (“+”: MIC (μg/mL): 64 ≧ MIC > 16) | ++ (“++”: MIC (μg/mL): MIC ≦ 16) | − (“−”: MIC (μg/mL): MIC > 64) | − (“−”: MIC (μg/mL): MIC > 64) | − (“−”: MIC (μg/mL): MIC > 64) |
| O=C(NC1C(CO)OCC(n2c(O)nc3cc(C(F)(F)F)cc(Cl)c32)C1O)c1ccc(-c2ccccc2)cc1 (stereo not shown) [Compound 153] | + (“+”: MIC (μg/mL): 64 ≧ MIC > 16) | − (“−”: MIC (μg/mL): MIC > 64) | + (“+”: MIC (μg/mL): 64 ≧ MIC > 16) | + (“+”: MIC (μg/mL): 64 ≧ MIC > 16) | − (“−”: MIC (μg/mL): MIC > 64) |
| NC(Cc1ccc(-c2ccccc2)cc1)C(=O)Nc1nc2cc(C(F)(F)F)ccc2n1C1C(CO)OCC(NS(=O)(=O)c2ccc(C(F)(F)F)cc2)C1O (stereo not shown) [Compound 241] | ++ (“++”: MIC (μg/mL): MIC ≦ 16) | ++ (“++”: MIC (μg/mL): MIC ≦ 16) | ++ (“++”: MIC (μg/mL): MIC ≦ 16) | ++ (“++”: MIC (μg/mL): MIC ≦ 16) | + (“+”: MIC (μg/mL): 64 ≧ MIC > 16) |
| O=C(Nc1ccc(Cl)c(C(F)(F)F)c1)NC1COC(CO)C(n2c(Nc3ccc(Cl)cc3)nc3cc(C(F)(F)F)cc(Cl)c32)C1O (stereo not shown) [Compound 252] | + (“+”: MIC (μg/mL): 64 ≧ MIC > 16) | − (“−”: MIC (μg/mL): MIC > 64) | + (“+”: MIC (μg/mL): 64 ≧ MIC > 16) | − (“−”: MIC (μg/mL): MIC > 64) | − (“−”: MIC (μg/mL): MIC > 64) |
| CCCCCC(C)CCC(=O)NC1C(CO)OCC(n2c(N)nc3cc(C(F)(F)F)cc(Cl)c32)C1O (stereo not shown) [Compound 179] | + (“+”: MIC (μg/mL): 64 ≧ MIC > 16) | − (“−”: MIC (μg/mL): MIC > 64) | − (“−”: MIC (μg/mL): MIC > 64) | − (“−”: MIC (μg/mL): MIC > 64) | − (“−”: MIC (μg/mL): MIC > 64) |
| O=C(Nc1ccc(Cl)c(C(F)(F)F)c1)NC1COC(CO)C(n2c(NCc3cccc(Oc4ccccc4)c3)nc3cc(C(F)(F)F)ccc32)C1O (stereo not shown) [Compound 249] | ++ (“++”: MIC (μg/mL): MIC ≦ 16) | ++ (“++”: MIC (μg/mL): MIC ≦ 16) | ++ (“++”: MIC (μg/mL): MIC ≦ 16) | ++ (“++”: MIC (μg/mL): MIC ≦ 16) | ++ (“++”: MIC (μg/mL): MIC ≦ 16) |
| CCCCCCCCCCCCC(N)C(=O)NC1C(CO)OCC(n2c(O)nc3cc(C(F)(F)F)ccc32)C1O (stereo not shown) [Compound 181] | + (“+”: MIC (μg/mL): 64 ≧ MIC > 16) | + (“+”: MIC (μg/mL): 64 ≧ MIC > 16) | + (“+”: MIC (μg/mL): 64 ≧ MIC > 16) | ++ (“++”: MIC (μg/mL): MIC ≦ 16) | + (“+”: MIC (μg/mL): 64 ≧ MIC > 16) |
| CCCCCCCCCCCCC(N)C(=O)NC1C(CO)OCC(n2cnc3cc(C(F)(F)F)cc(Cl)c32)C1O (stereo not shown) [Compound 188] | + (“+”: MIC (μg/mL): 64 ≧ MIC > 16) | − (“−”: MIC (μg/mL): MIC > 64) | + (“+”: MIC (μg/mL): 64 ≧ MIC > 16) | + (“+”: MIC (μg/mL): 64 ≧ MIC > 16) | + (“+”: MIC (μg/mL): 64 ≧ MIC > 16) |
| O=C(NC1C(CO)OCC(n2cnc3cc(C(F)(F)F)cc(Cl)c32)C1O)c1ccc(-c2ccccc2)cc1 (stereo not shown) [Compound 156] | + (“+”: MIC (μg/mL): 64 ≧ MIC > 16) | + (“+”: MIC (μg/mL): 64 ≧ MIC > 16) | − (“−”: MIC (μg/mL): MIC > 64) | − (“−”: MIC (μg/mL): MIC > 64) | − (“−”: MIC (μg/mL): MIC > 64) |
| CCCCCC(C)CCC(=O)NC1C(CO)OCC(n2c(O)nc3cc(C(F)(F)F)cc(Cl)c32)C1O (stereo not shown) [Compound 177] | + (“+”: MIC (μg/mL): 64 ≧ MIC > 16) | + (“+”: MIC (μg/mL): 64 ≧ MIC > 16) | − (“−”: MIC (μg/mL): MIC > 64) | + (“+”: MIC (μg/mL): 64 ≧ MIC > 16) | − (“−”: MIC (μg/mL): MIC > 64) |
| O=C(Nc1ccc(Cl)c(C(F)(F)F)c1)NC1COC(CO)C(n2c(NCc3ccc4ccccc4c3)nc3cc(C(F)(F)F)ccc32)C1O (stereo not shown) [Compound 251] | ++ (“++”: MIC (μg/mL): MIC ≦ 16) | ++ (“++”: MIC (μg/mL): MIC ≦ 16) | ++ (“++”: MIC (μg/mL): MIC ≦ 16) | ++ (“++”: MIC (μg/mL): MIC ≦ 16) | ++ (“++”: MIC (μg/mL): MIC ≦ 16) |
| NC(C(=O)Nc1nc2cc(C(F)(F)F)ccc2n1C1C(CO)OCC(NS(=O)(=O)c2ccc(C(F)(F)F)cc2)C1O)c1ccc(-c2ccccc2)cc1 (stereo not shown) [Compound 240] | ++ (“++”: MIC (μg/mL): MIC ≦ 16) | − (“−”: MIC (μg/mL): MIC > 64) | ++ (“++”: MIC (μg/mL): MIC ≦ 16) | ++ (“++”: MIC (μg/mL): MIC ≦ 16) | − (“−”: MIC (μg/mL): MIC > 64) |
